In patent publication US11193004B2, “Phosphoric ester preparations with reduced hygroscopicity” (LANXESS Deutschland GmbH, priority 2013, dated 2021):

Tests used:
[1] = Solubility in water of phosphoric esters b)
[2] = physchem; conditions: 25 °C, water

Compound: O=P(OC(CCl)CCl)(OC(CCl)CCl)OC(CCl)CCl [TDCP, Tris(2,3-dichloroisopropyl) phosphate]
- Solubility in water at 25° C. [1]: 100 µg/mL

Compound: Isopropylated triphenyl phosphate [IPP]
- Solubility in water at 25° C. [1]: 0.33 µg/mL

Compound: Diphenyl cresyl phosphate [DPC]
- Solubility in water at 25° C. [1]: 2.6 µg/mL

Compound: CCOP(=O)(OCC)OCC [TEP, Triethyl phosphate]
- solubility [2]: > 3000 µg/mL
- Solubility in water at 25° C. [1]: miscible
